# Experimental data as given in paper PMC3438169 (PLoS ONE, 2012).
# *1 amine or outer side, *2 acyl side, *3 side chain or, on linkers, in order; H or OH if unused. Where a SMILES comes first, the peptide text is derived from it. [ ]: non-standard residue; d: D form. dAla(ψthiazole) = C[C@@H](N[*:1])c1nc(C(=O)[*:2])cs1; Trp(4-OMe) = COc1cccc2[nH]cc(C[C@H](N)C(=O)O)c12; dAbu = CC[C@@H](N)C(=O)O; Dha = C=C(N)C(=O)O; Sar = CNCC(=O)O
# Legend:
# [1] = system: recombinant human mEF-G1 WT; test: Biacore binding, human mEF-G1 WT; conditions: 10, 20, 40 µM, HBS-P+ pH 7.4, 4% DMSO
# Source text: (§1) GFM1 encoding the active site of EF-G1 (residues 36–751) was PCR amplified from pDONR221 constructs using primers (GGGGACAAGTTTGTACAAAAAAGCAGGCTTAATGTCTTCATCAGGGGTGATT, GGGGACCACTTTGTACAAGAAAGCTGGGTATTAGTTCTTGGCTTTTCC). P. aeroginosa fusA1 encoding full-length EF-G was PCR amplified from pET28a-PaEFG-Nhis using primers (GGGGACCACTTTGTACAAGAAAGCTGGGTATTATCAACCTTGTTTTTT, GGGGACAAGTTTGTACAAAAAAGCAGGCTTAATGGCCCGTACTACACCC). Purified PCR products were cloned into the pDONR221 vector using Gateway cloning and BP Clonase II (Invitrogen), shuttled into an E.coli protein expression vector for N-terminal tagging (Avitag-His6 vector) using LR Clonase II (Invitrogen), and verified by sequencing. Avitag-His6-hEF-G1 and Avitag-His6-PaEF-G constructs were transformed into BL21-AI cells (Invitrogen) and isolated single colonies were used to inoculate 5 ml cultures which were grown overnight at 37°C with shaking. […]. Briefly, protein was captured on column using binding buffer (50 mM Tris; pH 7.5, 300 mM NaCl, 20 mM imidazole, 10% glycerol), washed extensively with washing buffer (50 mM Tris; pH 7.5, 500 mM NaCl, 30 mM imidazole, 10% glycerol), and then eluted with elution buffer (50 mM Tris; pH 7.5, 500 mM NaCl, 250 mM imidazole, 10% glycerol). […]
# B. multivorans [2] = test: Broth microdilution susceptibility to argyrin B, B. multivorans strains; assay type: cell-based
# [3] = system: cytochrome c oxidase subunit 2 (COX2); test: Immunoblot of mitochondrial-encoded COX2 in HCT116 and RKO cells; assay type: cell-based, human; conditions: 4 days
# Protocol: Whole cell lysates were prepared using RIPA buffer (Cell Signaling Technology) supplemented with EDTA-free protease inhibitor cocktail (Roche Applied Science), cleared by centrifugation at 16,000× g for 10 min, normalized based on protein concentration (Bio-Rad protein assay), boiled in NuPAGE LDS sample buffer (Invitrogen) supplemented with 2% ß-mercaptoethanol, and separated on NuPAGE 4–12% Bis-Tris gels using MOPS running buffer (Invitrogen). Proteins were transferred to nitrocellulose membranes and probed with the following primary antibodies: rabbit polyclonal antibody against mEF-G1 (Sigma, HPA034765), rabbit monoclonal antibody against GAPDH (Cell Signaling Technology, 14C10), mouse monoclonal antibodies against COX2 (Invitrogen, A6404) or SDHA (MitoSciences, MS204). Immobilized primary antibodies were visualized using HRP-conjugated anti-rabbit or anti-mouse IgG (Millipore, AP307P and AP308P) and enhanced chemiluminescence (Pierce).
# P. aeruginosa EF-G1 = molecular target: T1, P. aeruginosa EF-G1 (Pseudomonas aeruginosa, UniProt Q9HWD2); test: Co-crystal structure of EF-G1 with argyrin B; assay type: binding; conditions: PDB 4FN5, 2.9 Å
# T1 construct: P. aeroginosa fusA1 encoding full-length EF-G was PCR amplified from pET28a-PaEFG-Nhis; made in house; host or cells: E. coli BL21 (DE3)
# Protocol: BL21 (DE3) cells harboring pET28a-PaEFG-Nhis were grown in Terrific Broth containing 100 µg/ml kanamycin. EF-G1 expression was induced using 1 mM IPTG. Cell pellets were resuspended and lysed using a microfluidizer, after which ultracentrifugation was performed. Purification was done using NiNTA resin followed by removal of the N-terminal Histidine tag with thrombin protease. The protein was further purified using a Mono Q column and was then concentrated and loaded onto a HiLoad Superdex 200 26/60 column, exchanging the protein into 25 mM Tris-HCl pH 7.5, 150 mM NaCl and 1 mM TCEP. […] Sitting drop vapor diffusion method was used for crystallization, with the crystallization well containing 100 mM Tris-HCl pH 7.5, 18% PEG 3350 and 200 mM sodium nitrate, and the drop containing a 1∶1 volume of protein and crystallization solution. After crystals formed they were subsequently cryoprotected using the crystallization solution with the addition of 20% glycerol, followed by flash freezing directly into liquid nitrogen.
# The data were measured from a single crystal maintained at 100°K, and the reflections were indexed, integrated, and scaled using autoPROC [27], [28]. The spacegroup of the complex is C2 with 1 molecule in the asymmetric unit. The structure was determined with PHASER [29] using molecular replacement methods with a starting model of Thermus thermophilus EF-G (PDB Code 2BM0). […]
# [4] = system: recombinant human mEF-G1 S494F; test: Biacore binding, human mEF-G1 S494F; conditions: 10, 20, 40 µM, HBS-P+ pH 7.4, 4% DMSO
# Source text: as §1
# B. multivorans [5] = test: Resistant mutant selection, B. multivorans; assay type: cell-based; conditions: Mueller-Hinton agar, 4 or 16 µg/ml argyrin B
# Protocol: Resistance frequencies were calculated as the number of CFU (mutants) on drug containing plates divided by the number of CFU plated. Whole genome sequencing was done as described previously. The fusA1 gene from P. aeruginosa was generated for sequencing in two parts, using primer pairs PAEFF1/PAEFR1: […]/[…] and EFF2/EFR1: […]/[…]. The fusA1 gene from B. multivorans was generated as a single band using BCEFGF1/BCEFGR1: […]/[…]. Nucleotide sequencing of the products was done by Agencourt (Beverly MA).
# T1 sequence (Q9HWD2 whole entry): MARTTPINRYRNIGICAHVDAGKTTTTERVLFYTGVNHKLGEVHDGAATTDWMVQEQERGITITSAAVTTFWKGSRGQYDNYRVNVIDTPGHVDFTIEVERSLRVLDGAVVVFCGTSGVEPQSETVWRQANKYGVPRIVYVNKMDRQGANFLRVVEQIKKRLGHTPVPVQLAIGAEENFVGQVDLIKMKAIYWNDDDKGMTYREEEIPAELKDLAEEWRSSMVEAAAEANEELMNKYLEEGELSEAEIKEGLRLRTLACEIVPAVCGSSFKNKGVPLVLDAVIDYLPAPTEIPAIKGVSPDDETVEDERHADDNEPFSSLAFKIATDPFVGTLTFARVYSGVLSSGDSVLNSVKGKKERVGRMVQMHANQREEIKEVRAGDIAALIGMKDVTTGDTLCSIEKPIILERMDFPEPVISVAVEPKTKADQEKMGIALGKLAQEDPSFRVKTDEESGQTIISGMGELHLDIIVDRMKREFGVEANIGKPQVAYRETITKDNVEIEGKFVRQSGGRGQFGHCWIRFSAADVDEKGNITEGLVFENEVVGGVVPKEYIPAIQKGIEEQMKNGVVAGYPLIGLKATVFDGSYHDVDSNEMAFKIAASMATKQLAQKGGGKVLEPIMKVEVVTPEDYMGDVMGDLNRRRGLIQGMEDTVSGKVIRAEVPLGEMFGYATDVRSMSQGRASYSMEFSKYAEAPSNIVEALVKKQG
structure (smiles),measurement,setting,value
C=C1NC(=O)CN(C)C(=O)CNC(=O)[C@H](Cc2c[nH]c3cccc(OC)c23)NC(=O)[C@H](Cc2c[nH]c3ccccc23)NC(=O)c2csc(n2)[C@@H](C)NC(=O)[C@@H](CC)NC1=O [argyrin B] (cyclo([dAbu][dAla(ψthiazole)]W[Trp(4-OMe)]G[Sar][Dha])),Binding to human mEF-G1 (in words),[1],still bound
same,Susceptibility to argyrin B,B. multivorans [2]; B. multivorans CDA0079 (FusA1 P484R),>32 µg/mL
same,Susceptibility to argyrin B,B. multivorans [2]; B. multivorans CDA0080 (FusA1 S415L),>32 µg/mL
same,Susceptibility to argyrin B,B. multivorans [2]; B. multivorans CDA0093 (FusA1 S415W),>32 µg/mL
same,Susceptibility to argyrin B,B. multivorans [2]; B. multivorans CDA0094 (FusA1 L656P),>32 µg/mL
same,Susceptibility to argyrin B,B. multivorans [2]; B. multivorans NB49004 (clinical isolate),1 µg/mL
same,COX2 protein level (in words),"[3]; HCT116, 1 µM argyrin B",depleted
same,COX2 protein level (in words),"[3]; RKO, 1 µM argyrin B",depleted
same,Binding site in co-crystal structure,P. aeruginosa EF-G1,bound at the interface of domains III and V
same,Binding to human mEF-G1 (in words),[4],still bound
same,frequency of argyrin B resistant mutants,B. multivorans [5],10^−9–10^−8
